Results published in patent US5475130A, “Anilide derivative” (Taisho Pharmaceutical Co., Ltd., priority 1990, dated 1995).

Biological target: T1, ACAT (acyl-coenzyme A cholesterol acyltransferase) (Oryctolagus cuniculus, UniProt G1SFD9)
T1 construct: A rabbit small intestinal microsome fraction was prepared in the usual way; from tissue; host or cells: rabbit small intestine, microsome fraction
T1 sequence (G1SFD9 1-524): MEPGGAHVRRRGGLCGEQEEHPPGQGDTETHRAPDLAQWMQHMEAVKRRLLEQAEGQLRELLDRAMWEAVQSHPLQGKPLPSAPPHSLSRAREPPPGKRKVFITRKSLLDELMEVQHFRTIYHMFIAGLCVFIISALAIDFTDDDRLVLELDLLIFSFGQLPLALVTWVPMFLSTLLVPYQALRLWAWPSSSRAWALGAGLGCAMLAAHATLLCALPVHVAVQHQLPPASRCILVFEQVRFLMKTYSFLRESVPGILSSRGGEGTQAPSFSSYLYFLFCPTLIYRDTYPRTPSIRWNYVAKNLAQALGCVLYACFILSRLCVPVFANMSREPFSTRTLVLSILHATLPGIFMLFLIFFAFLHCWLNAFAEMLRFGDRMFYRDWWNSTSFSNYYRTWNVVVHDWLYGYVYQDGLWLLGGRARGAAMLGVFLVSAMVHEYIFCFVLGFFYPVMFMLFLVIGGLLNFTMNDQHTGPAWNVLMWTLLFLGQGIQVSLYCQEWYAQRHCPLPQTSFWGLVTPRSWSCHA
Assay: ACAT inhibition activity (rabbit small intestinal microsome fraction, [1-^14 C]oleyl coenzyme A)
Type: biochemical
Details: not given
Description: (ACAT inhibition activity)
A rabbit small intestinal microsome fraction was prepared in the usual way, and the thus prepared microsome fraction was suspended in 0.04N potassiumphosphate buffer (pH 7.4) containing 0.1N sucrose, 0.03N ethylenediaminetetraacetic acid (EDTA) and 0.05N potassium chloride. Each of the drugs to be tested was dissolved in dimethyl sulfoxide.
The rabbit small intestinal microsome fraction suspension prepared above (250 μg as protein) and [1-^14 C]oleyl coenzyme A were added to 0.05N phosphate buffer (pH 7.4) containing 1% bovine serum albumin, followed by the addition of a drug to be tested with varied concentration,and the total volume was adjusted to 500 μl. The thus prepared mixture was incubated at 37° C. for 6 minutes, and the reaction was terminated by adding a mixture of chloroform and methanol (mixing ratio=2:1). After stirring, the resulting chloroform layer was collected and dried by concentration. […] A gel portion corresponding to cholesterol oleate was cut out and its radioactivity was measured using a liquid scintillation counter (LSC-3000, manufactured by Aroka Co., Ltd.). Samples obtained without using the drugs to be tested were also treated and measured in the same manner.
ACAT activity inhibition ratio (%)=(A-B)/B×100
A: ACAT activity when a drug to be tested is administered.
B: ACAT activity when a drug to be tested is not admistered.

Compound	IC50 [nM]
CCCCCCCCCCCCCCSCC(=O)Nc1c(C(C)C)cccc1C(C)C [Compound 1, N-(2,6-diisopropylphenyl)-2-(tetradecylthio)acetamide]	1 to 10

Same assay, conditions: rabbit small intestinal microsome fraction (250 μg as protein), 37° C., 6 minutes, pH 7.4, 1% bovine serum albumin; read-out: Activity (strength of the activity, IC50 value)

Compound	IC50 [nM]
CC(C)c1cccc(C(C)C)c1NC(=O)CSCc1ccc(C(C)(C)C)cc1 [Compound 8, N-(2,6-diisopropylphenyl)-2-(4-t-butylbenzylthio)acetamide]	10 to 100
CCCCCCCCCCCCCC[S+]([O-])CC(=O)Nc1c(C(C)C)cccc1C(C)C (stereo not shown) [Compound 13]	10 to 100
CCCCCCCCCCCCCCSCCC(=O)Nc1c(C(C)C)cccc1C(C)C [Compound 12, N-(2,6-diisopropylphenyl)-3-(tetradecylthio)propanamide]	1 to 10
CCCCCCCCCCCCCCCCCCSCC(=O)Nc1c(C(C)C)cccc1C(C)C [Compound 6, N-(2,6-diisopropylphenyl)-2-(octadecylthio)acetamide]	1 to 10
CCCCCCCCCCCCS(=O)(=O)CC(=O)Nc1c(C(C)C)cccc1C(C)C [Compound 17, N-(2,6-diisopropylphenyl)-2-(dodecylsulfonyl)acetamide]	10 to 100
CCCCCCCCCCCCCCSCC(=O)Nc1c(C)cccc1C(C)(C)C [Compound 24, N-(2-methyl-6-t-butylphenyl)-2-(tetradecylthio)acetamide]	1 to 10
CCCCCCCCCCCCSCC(=O)Nc1c(C(C)C)cccc1C(C)C [Compound 4, N-(2,6-diisopropylphenyl)-2-(dodecylthio)acetamide]	10 to 100
CCCCCCCCCCCCCCS(=O)(=O)CC(=O)Nc1c(C(C)C)cccc1C(C)C [Compound 14, N-(2,6-diisopropylphenyl)-2-(tetradecylsulfonyl)acetamide]	10 to 100
CCCCCCCCCCCCCCSC(C)(C)C(=O)Nc1c(C(C)C)cccc1C(C)C [Compound 9, N-(2,6-diisopropylphenyl)-2-methyl-2-(tetradecylthio)propanamide]	10 to 100
CCCCCCCCCCCCCCCCSCC(=O)Nc1c(C(C)C)cccc1C(C)C [Compound 5, N-(2,6-diisopropylphenyl)-2-(hexadecylthio)acetamide]	10 to 100
CCCCCCCCCCCCCCCCS(=O)(=O)CC(=O)Nc1c(C(C)C)cccc1C(C)C [Compound 18, N-(2,6-diisopropylphenyl)-2-(hexadecylsulfonyl)acetamide]	10 to 100
CCCCCCCCCCCCCCSCCCC(=O)Nc1c(C(C)C)cccc1C(C)C [Compound 10, N-(2,6-diisopropylphenyl)-4-(tetradecylthio)butanamide]	1 to 10
